{
  "source": "paper PMC5589648",
  "about": "“Acetyl-lupeolic acid inhibits Akt signaling and induces apoptosis in chemoresistant prostate cancer cells in vitro and in vivo” (Oncotarget, 2017)",
  "key": {"Akt3": {"target": "T1, Akt3 (Homo sapiens, UniProt Q9Y243)", "T1 construct": "active recombinant human Akt3", "T1 sequence (Q9Y243 2-479)": "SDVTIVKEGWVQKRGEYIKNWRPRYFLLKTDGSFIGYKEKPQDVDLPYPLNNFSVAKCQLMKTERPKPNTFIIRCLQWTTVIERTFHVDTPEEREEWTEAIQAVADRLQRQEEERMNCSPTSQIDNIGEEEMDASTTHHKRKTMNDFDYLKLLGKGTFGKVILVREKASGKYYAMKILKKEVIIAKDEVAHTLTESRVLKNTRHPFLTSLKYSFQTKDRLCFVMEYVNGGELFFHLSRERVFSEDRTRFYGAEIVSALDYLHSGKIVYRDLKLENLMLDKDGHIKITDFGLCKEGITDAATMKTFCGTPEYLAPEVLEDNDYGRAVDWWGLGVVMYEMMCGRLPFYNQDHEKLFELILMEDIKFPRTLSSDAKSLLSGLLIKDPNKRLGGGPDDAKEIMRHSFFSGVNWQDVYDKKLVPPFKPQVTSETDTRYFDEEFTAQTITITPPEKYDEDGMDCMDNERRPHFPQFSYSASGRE", "experiment": "in vitro kinase assay, [γ-32P]ATP, GST-GSK-3β substrate", "assay_type": "biochemical"}, "Akt1": {"target": "T2, Akt1 (Homo sapiens, UniProt P31749)", "T2 construct": "active recombinant human Akt1", "T2 sequence (P31749 whole entry)": "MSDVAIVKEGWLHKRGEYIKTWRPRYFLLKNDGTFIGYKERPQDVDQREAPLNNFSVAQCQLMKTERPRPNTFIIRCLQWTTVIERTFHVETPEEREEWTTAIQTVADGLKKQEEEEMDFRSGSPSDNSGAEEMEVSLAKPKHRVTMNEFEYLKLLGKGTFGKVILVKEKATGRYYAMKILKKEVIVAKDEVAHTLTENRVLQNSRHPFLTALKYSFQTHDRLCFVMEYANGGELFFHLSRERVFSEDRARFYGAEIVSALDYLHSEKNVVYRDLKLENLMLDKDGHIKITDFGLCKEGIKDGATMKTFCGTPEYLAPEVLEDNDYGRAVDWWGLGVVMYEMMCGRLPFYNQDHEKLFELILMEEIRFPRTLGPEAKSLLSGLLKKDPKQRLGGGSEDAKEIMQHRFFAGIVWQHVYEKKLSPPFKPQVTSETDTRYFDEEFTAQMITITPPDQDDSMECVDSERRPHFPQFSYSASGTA", "experiment": "in vitro kinase assay, [γ-32P]ATP, GST-GSK-3β substrate", "assay_type": "biochemical"}},
  "data": [
    {"smiles": "C=C(C)[C@@H]1CC[C@]2(C)CC[C@]3(C)[C@H](CC[C@@H]4[C@@]5(C)CC[C@H](O)C(C)(C)[C@@H]5CC[C@]43C)[C@@H]12", "note": "[lupeol]", "values": [
      {"measurement": "in vitro kinase assay, [γ-32P]ATP, GST-GSK-3β substrate", "setting": "Akt3", "result": "Compared to ac-LA, lupeol was about threefold less potent in the inhibition of Akt1 and Akt3 isoforms"},
      {"measurement": "in vitro kinase assay, [γ-32P]ATP, GST-GSK-3β substrate", "setting": "Akt1", "result": "Compared to ac-LA, lupeol was about threefold less potent in the inhibition of Akt1 and Akt3 isoforms"}
    ]}
  ]
}
